Target: T1, DNA topoisomerase 1 of purified calf thymus (Bos taurus, UniProt F1MN93)
T1 construct: DNA topoisomerase 1 of purified calf thymus (Gibco-BRL, Paisley, United Kingdom); purchased Gibco-BRL, Paisley, United Kingdom; host or cells: calf thymus tissue
T1 sequence (F1MN93 1-767): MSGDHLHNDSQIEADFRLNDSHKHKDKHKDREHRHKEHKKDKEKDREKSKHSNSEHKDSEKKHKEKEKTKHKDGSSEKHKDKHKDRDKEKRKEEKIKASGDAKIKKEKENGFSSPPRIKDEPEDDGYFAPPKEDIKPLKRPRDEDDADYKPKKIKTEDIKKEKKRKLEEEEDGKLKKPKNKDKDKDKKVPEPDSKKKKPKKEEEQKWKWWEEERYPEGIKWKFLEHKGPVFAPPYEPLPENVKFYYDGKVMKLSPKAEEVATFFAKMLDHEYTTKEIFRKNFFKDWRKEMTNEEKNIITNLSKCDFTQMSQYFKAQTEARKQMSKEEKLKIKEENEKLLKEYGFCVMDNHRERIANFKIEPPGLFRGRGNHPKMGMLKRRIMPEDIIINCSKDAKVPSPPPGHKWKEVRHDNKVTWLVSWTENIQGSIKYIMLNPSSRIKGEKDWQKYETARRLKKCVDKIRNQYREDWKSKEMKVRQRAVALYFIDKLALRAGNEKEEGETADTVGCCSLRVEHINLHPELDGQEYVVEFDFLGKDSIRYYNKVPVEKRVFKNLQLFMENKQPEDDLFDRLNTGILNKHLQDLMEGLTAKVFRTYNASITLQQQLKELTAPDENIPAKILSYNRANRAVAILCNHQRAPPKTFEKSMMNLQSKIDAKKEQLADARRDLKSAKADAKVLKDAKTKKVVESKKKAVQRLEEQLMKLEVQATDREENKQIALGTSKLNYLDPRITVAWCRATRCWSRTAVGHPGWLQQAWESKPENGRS
Assay: Relaxation activity test of DNA induced by topoisomerase 1
Assay type: biochemical
Settings: supercoiled pUC19, 15 minutes at 37° C.
Protocol: 1. Relaxation Activity Test of DNA Induced by Topoisomerase 1
All the reactions are carried out in a 20 μl reaction buffer constituted by 50 mM of Tris-HCl (pH 7.5), 50 mM of KCl, 0.5 mM of dithiothreitol, 10 mM of MgCl2, 0.1 mM of ethyldiamine tetraacetic acid (EDTA), 30 μg/ml of bovine serum albumin and 300 ng of supercoiled pUC19 (Pharmacia Biotech, Orsay, France) with or without the compounds to be tested at defined concentrations. All the compounds to be tested are initially dissolved in dimethylsulphoxide (DMSO) at 50 mM, the other dilutions being carried out with distilled water. […] The reaction is initiated by the addition of a unit of DNA topoisomerase 1 of purified calf thymus (Gibco-BRL, Paisley, United Kingdom) and is carried out for 15 minutes at 37° C. The reactions are stopped by the addition of 3 μl of a mixture containing 1% dodecyl sodium sulphate at 1%, 20 mM of EDTA and 500 μg/ml of K proteinase (Boehringer Mannheim, Meylan, France). After an additional incubation period of 30 minutes at 37° C., 2 μl of a loading buffer containing 10 mM of Na2HPO4, 0.3% of bromophenol blue et 16% Ficoll are added to samples which are subjected to electrophoresis in agarose gels at 1.2% at 1 V/cm for 20 hours in a buffer containing 36 mM of Tris-HCl at pH 7.8, 30 mM of Na2HPO4, 1 mM of EDTA and 2 μg/ml of chloroquine. The gels are stained with 2 μg/ml of ethidium bromide, photographed under UV light at 312 nm with a camera and the fluorescent intensity is measured with a bioProfil camera (Vilber Lournat, Lyon, France) with a view to determining the percentage of relaxed DNA. Each experiment is carried out at least three times in duplicate.
In each experiment, the supercoiled plasmid DNA is incubated alone or with topoisomerase 1. The reaction is completed within 15 minutes. For each compound to be tested or control, the supercoiled plasmid DNA is incubated in the presence of 500 μM of compound to be tested with enzyme or without enzyme plus the compound to be tested, at concentrations of 10 μM, 100 μM, 200 μM and 500 μM.

SMILES	PERCENTAGE OF RELAXED DNA (10 μM compound) [%]	PERCENTAGE OF RELAXED DNA (100 μM compound) [%]	PERCENTAGE OF RELAXED DNA (200 μM compound) [%]	PERCENTAGE OF RELAXED DNA (500 μM compound) [%]
CCc1c2c(nc3ccccc13)-c1cc(C(O)(CC)CC(=O)O)c(CO)c(=O)n1C2 (centres unmarked) [Example 10, 3-[12-ethyl-8-(hydroxymethyl)-9-oxo-9,11-dihydroindolizino[1,2-b]quinolin-7-yl]-3-hydroxypentanoic acid]	96.9	45.4	26.2	8.7
CCC(O)(CC(=O)O)c1cc2n(c(=O)c1CO)Cc1cc3ccccc3nc1-2 (centres unmarked) [Example 4, 3-hydroxy-3-[8-(hydroxymethyl)-9-oxo-9,11-dihydroindolizino [1,2-b]quinolin-7-yl]pentanoic acid]	99.1	82.2	67.6	32.9
CCC1(O)CC(=O)OCc2c1cc1n(c2=O)Cc2cc3cc4c(cc3nc2-1)OCCO4 (centres unmarked) [Example 11, 8-ethyl-8-hydroxy-2,3,8,9,12,15-hexahydro-10H,13H-[1,4]dioxino [2,3-g]oxepino[3′,4′:6,7]indolizino[1,2-b]quinoline-10,13-dione]	65.0	50.3	39.8	31.0
CCC1(O)CC(=O)OCc2c1cc1n(c2=O)Cc2cc3ccccc3nc2-1 (centres unmarked) [Example 3, 5-ethyl-5-hydroxy-1,4,5,13-tetrahydro-3H,15H-oxepino [3′,4′:6,7]indolizino[1,2-b]quinoline-3,15-dione]	79.9	59.9	55.0	45.7
CCc1c2c(nc3ccccc13)-c1cc3c(c(=O)n1C2)COC(=O)CC3(O)CC (centres unmarked) [Example 9, 5,12-diethyl-5-hydroxy-1,4,5,13-tetrahydro-3H,15H-oxepino[3′,4′:6,7]indolizino[1,2-b]quinoline-3,15-dione]	77.1	33.9	29.7	20.4

Source: patent publication US6815546B2, “Analogues of camptothecin, their use as medicaments and the pharmaceutical compositions containing them” (Societe de Recherches et d'Applications Scientifiques …, priority 1995, dated 2004)
